Laboratory results taken from ChEMBL document CHEMBL1148932, “Cyanopeptolin 963A, a chymotrypsin inhibitor of Microcystis PCC 7806” (J Nat Prod, 2004).
The source made the active and inactive calls. The rule behind the calls is not given here.

Legend:
[1] = target: Cathepsin B (Bos taurus) (UniProt P07688); assay: Inhibition of cathepsin B in bovine spleen at 15 uM
[2] = species on record: Sus scrofa; assay: Inhibition of trypsin in pig pancreas at 15 uM
[3] = Inhibition of alpha-chymotrypsin in bovine pancreas; parameters: species or system Bos taurus

Row | SMILES | Activity [1] | Activity [2] | IC50 [3] [µM]
1 | CCCCCC(=O)N[C@@H](CC(=O)O)C(=O)N[C@@H]1C(=O)N[C@@H](Cc2ccc(O)cc2)C(=O)N[C@H]2CC[C@@H](O)N(C2=O)[C@@H](CC(C)C)C(=O)N(C)[C@@H](Cc2ccccc2)C(=O)N[C@@H](C(C)C)C(=O)O[C@@H]1C [CYANOPEPTOLIN 963A] | inactive | inactive | 0.9
2 | CC[C@H](C)[C@@H]1NC(=O)[C@H](Cc2ccc(O)cc2)N(C)C(=O)[C@H](Cc2ccccc2)N2C(=O)[C@H](CC[C@H]2O)NC(=O)[C@H](Cc2ccccc2)NC(=O)[C@@H](NC(=O)[C@@H](O)COP(=O)(O)O)[C@@H](C)OC1=O [MICROPEPTIN T 20] | – | – | 0.0025
